The source of these data is PMC12505902, “Inhibitors of trehalose-6-phosphate synthase activity in fungal pathogens compromise thermal tolerance pathways” (mBio, 2025).

This test has as its system C. auris (B11220). The experiment in a line: MIC dose-response assay in YPD. The test is classed as cell-based. The note with it: Candidozyma auris. As for the experimental part:
We tested the effects of 4456dh on live cells by determining the minimal inhibitory concentration causing 80% growth reduction (MIC80). Wild-type (WT) C. albicans and C. auris cells were incubated with 4456dh in yeast-peptone-dextrose (YPD) medium at 42°C and 39°C, respectively (Fig. 4A). […] 4456dh inhibited the growth of C. auris with an MIC80 of 7 mM at 39°C (Fig. 4A). The MIC80 increased at 30°C to greater than 13 mM (Fig. S7A).
Fig 4 4456dh inhibits the growth of Candida and Cryptococcus species. Two-fold dose response assays were performed against (A) C. albicans at 42°C and C. auris at 39°C, (B) C. glabrata at 42°C, and (C) C. neoformans, C. deneoformans, and C. gattii at 37°C. 4456dh was administered at the concentrations indicated. Cultures were grown in YPD at the listed temperatures for 48 hours for Candida species and 72 hours for Cryptococcus species. Experimental temperatures reflect the temperatures at which the fungi experience heat stress. Left: relative growth of treated samples was calculated by averaging technical triplicates and normalizing the OD600 of each treated well to the average OD600 of the untreated WT controls, after the absorbance due to the compound was subtracted. The MIC80 values, calculated based on the OD600 values, are indicated in the white text on each heat map. […]
102 determined by identifying the inflection point of the derivative data. […]
104 The catalytic activity of C. albicans Tps1 and C. neoformans Tps1 was measured via a continuous […]
110 bottomed 96-well microtiter plates and the decrease in absorbance at 340 nm during the initial
111 reaction rate was recorded using a plate reader (Tecan). The decrease in absorbance was
112 analyzed for the first 200s of the kinetic reaction. […]
116 the overnight cultures was quantified by measuring the OD600 and corrected for the background
117 absorbance of the medium. Antifungal potency for 4456dh was assessed by minimum inhibitory […]
124 technical replicates. Growth, as determined by a reading of absorbance at 600 nm, was
125 normalized to untreated controls and was corrected for the absorbance of 4456dh in the YPD […]

The MIC80 is an inhibitory concentration at the 80% level, which refers to growth in some studies and to a panel of isolates in others. The low end stands for greater potency, the high end for weaker potency. Consider `Cn1cc(-c2csc(NC(=O)Cc3ccccn3)n2)cn1` [Compound 4456dh], for which the MIC80 is, setting by setting: (30°C, YPD) above 13 mM; (39°C, YPD, 48 hours) 7 mM; (Supplemental Table 5, This publication) 2780 µg/mL.
